Results on 11 compounds are retold here after ChEMBL document CHEMBL1201862, “PubChem BioAssay data set” (2004).

Some test systems named below: A498; ACHN; CAKI-1; HCC 2998; HOP-92; Hs-578T; IGROV-1; Malme-3M; NCI/ADR-RES; OVCAR-4; PC-3; SK-MEL-5; SN12C; SNB-19; U-251; UACC-257; UO-31; OVCAR-3; SNB-75.
Test in all cases: growth of human tumour cells (NCI), 48 h

“And” between values parts separate entries of the source, which are not always exact repeats. Equal entries are not always repeated.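 Interpolation was linear, between the two tested concentrations surrounding the appropriate level; five concentrations were tested over 48 hours in 96-well plates. At the GI50, growth is halved.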 The source made the active and inactive calls. Cut-off read from the data, not from the text of the source: active = GI50 up to about 1.1 µM and inactive = higher. Some results are limits rather than exact numbers.

For the compound `O=c1[nH]c2nc(S)nc(S)c2[nH]1`, the GI50 in the experiment on A498, in the experiment on ACHN, in the experiment on CAKI-1, with HCC 2998, with HOP-92 and in the experiment with Hs-578T was > 100 µM (inactive) throughout. For the same compound, the GI50 in the experiment with IGROV-1, in the experiment with Malme-3M, in the experiment on NCI/ADR-RES, in the experiment on OVCAR-4, with PC-3 and in the experiment on SK-MEL-5 was > 100 µM (inactive) throughout. Moreover, the GI50 in the experiment on SN12C, with SNB-19, in the experiment on U-251, with UACC-257 and with UO-31 was > 100 µM (inactive) in each case.
For `COc1ccc(/C=C2\CC3C4CC=C5C[C@@H](O)CC[C@]5(C)C4CC[C@]3(C)C2=O)cc1OC` (some centres undefined), the GI50 with A498 was 28.6 µM (inactive); in the experiment on ACHN it was 24.5 µM (inactive); with CAKI-1 it was 29.2 µM (inactive); in the experiment with HCC 2998, 14.9 µM (inactive); in the experiment on HOP-92 it was 74.6 µM (inactive); in the experiment on Hs-578T it was 36.5 µM (inactive). Moreover, the GI50 with IGROV-1 was 75.3 µM (inactive); in the experiment with Malme-3M, 27.2 µM (inactive); in the experiment with NCI/ADR-RES it was 45 µM (inactive); in the experiment with OVCAR-3, 5.09 µM (inactive); in the experiment with OVCAR-4, 21.8 µM (inactive); with PC-3 it was 25.9 µM (inactive). The GI50 was 7.05 µM (inactive) in the experiment with SK-MEL-5; 23.1 µM (inactive) in the experiment on SN12C; 62.4 µM (inactive) in the experiment with SNB-19; 16 µM (inactive) in the experiment with SNB-75; 26.2 µM (inactive) with U-251; 13 µM (inactive) with UACC-257. The GI50 in the experiment with UO-31 is 14.8 µM (inactive).
For `S=C1/C(=N/c2ccccc2)N(C2CCCCC2)/C(=N\C2CCCCC2)N1c1ccccc1`, the GI50 with A498 was > 100 µM (inactive); in the experiment with ACHN, > 100 µM (inactive); with CAKI-1, > 100 µM (inactive); in the experiment on HCC 2998 it was 86.5 µM (inactive); in the experiment on HOP-92, > 100 µM (inactive); in the experiment with Hs-578T, > 100 µM (inactive). Further, the GI50 is 87.5 µM (inactive) in the experiment with IGROV-1; > 100 µM (inactive) in the experiment on Malme-3M; > 100 µM (inactive) with NCI/ADR-RES; > 100 µM (inactive) in the experiment with OVCAR-4; 63.8 µM (inactive) in the experiment with PC-3; > 100 µM (inactive) with SK-MEL-5. The GI50 in the experiment on SN12C is 47.8 µM (inactive); in the experiment on SNB-19, 47.2 µM (inactive); in the experiment on SNB-75 it was > 100 µM (inactive); with U-251, 32.2 µM (inactive); with UACC-257, > 100 µM (inactive); in the experiment on UO-31, > 100 µM (inactive).
Consider `Cc1ccc(S(=O)(=O)NC(=O)C2=C(c3ccccc3)[N-]N(C)c3nc4cccc[n+]4nc32)cc1`, for which the GI50 was > 100 µM (inactive) in the experiment with A498; > 100 µM (inactive) in the experiment on ACHN; > 100 µM (inactive) in the experiment with CAKI-1; > 100 µM (inactive) with HCC 2998; 12.6 µM (inactive) with HOP-92; > 100 µM (inactive) in the experiment with Hs-578T. For the same compound, the GI50 with IGROV-1 is 51.4 µM (inactive); in the experiment with Malme-3M it was 99.3 µM (inactive); with NCI/ADR-RES it was > 100 µM (inactive); in the experiment on OVCAR-4 it was > 100 µM (inactive); in the experiment on PC-3 it was > 100 µM (inactive); in the experiment on SK-MEL-5, 98.9 µM (inactive). Besides, the GI50 in the experiment with SN12C is > 100 µM (inactive); in the experiment with SNB-19, > 100 µM (inactive); in the experiment with SNB-75, 57.4 µM (inactive); in the experiment on U-251 it was > 100 µM (inactive); in the experiment with UACC-257 it was 66.4 µM (inactive); with UO-31, > 100 µM (inactive).
As for `O=c1c(Sc2ncccn2)c(Sc2ncccn2)cnn1CCl`, the GI50 in the experiment with A498 is 19.1 µM (inactive); in the experiment on ACHN it was 2.21 µM (inactive); in the experiment with CAKI-1, 1.98 µM (inactive); with HCC 2998, 10.8 µM (inactive); with HOP-92 it was 2.59 µM (inactive); in the experiment with Hs-578T it was 14.5 µM (inactive). Besides, the GI50 in the experiment on IGROV-1 was 1.17 µM (inactive); with Malme-3M, 2.05 µM (inactive); with NCI/ADR-RES, 4.97 µM (inactive); with OVCAR-3, 2.02 µM (inactive); in the experiment on OVCAR-4 it was 2.15 µM (inactive); in the experiment with PC-3, 2.48 µM (inactive). For the same compound, the GI50 in the experiment with SK-MEL-5 was 6.87 µM (inactive); in the experiment with SN12C it was 3.79 µM (inactive); in the experiment with SNB-19 it was 17 µM (inactive); in the experiment with SNB-75, 16.4 µM (inactive); in the experiment on U-251, 7.08 µM (inactive); in the experiment on UACC-257, 2.17 µM (inactive). Further, the GI50 in the experiment with UO-31 is 1.7 µM (inactive).
For the compound `CCN(CC)CCO/N=C1\CC[C@H]2[C@@H]3CCc4cc(OC)ccc4[C@H]3CC[C@]12C`, the GI50 in the experiment on A498 is 3.18 µM (inactive); in the experiment on ACHN, 3.57 µM (inactive); with CAKI-1 it was 0.74 µM (active); in the experiment with HCC 2998, 1.71 µM (inactive); in the experiment on HOP-92, 2.45 µM (inactive); with Hs-578T, 2.31 µM (inactive). For the same compound, the GI50 in the experiment on IGROV-1 was 3.26 µM (inactive); with Malme-3M, 1.82 µM (inactive); with NCI/ADR-RES, 5.41 µM (inactive); with OVCAR-3, 4.25 µM (inactive); in the experiment with OVCAR-4, 9.08 µM (inactive); in the experiment with PC-3, 2.64 µM (inactive). Besides, the GI50 in the experiment with SK-MEL-5 was 1.73 µM (inactive); with SN12C, 3.03 µM (inactive); with SNB-19 it was 8.38 µM (inactive); in the experiment with SNB-75 it was 2.44 µM (inactive); with U-251 it was 2.59 µM (inactive); with UACC-257, 0.859 µM (active). In addition, the GI50 in the experiment on UO-31 is 2.94 µM (inactive).
Turning to `COc1cc(/C=C\C(=O)O)ccc1OCc1ccccc1`, the GI50 in the experiment with A498 is > 100 µM (inactive); in the experiment on ACHN it was > 100 µM (inactive); in the experiment with CAKI-1, > 100 µM (inactive); in the experiment on HCC 2998, > 100 µM (inactive); in the experiment with HOP-92, 20.3 µM (inactive); in the experiment on Hs-578T, 49.3 µM (inactive). In addition, the GI50 with IGROV-1 is > 100 µM (inactive); in the experiment with Malme-3M, 0.053 µM (active); with NCI/ADR-RES, > 100 µM (inactive); in the experiment with OVCAR-3, > 100 µM (inactive); in the experiment on PC-3 it was > 100 µM (inactive); in the experiment on SK-MEL-5, > 100 µM (inactive). The GI50 in the experiment on SN12C, with SNB-19, with U-251, in the experiment on UACC-257 and with UO-31 was > 100 µM (inactive) throughout.
In the case of `O=C1C(Nc2ccccc2)=CC2=NCCc3n[nH]c1c32`, the GI50 in the experiment on A498 was 61.4 µM (inactive); with ACHN, 55.6 µM (inactive); in the experiment with CAKI-1, 72.6 µM (inactive); in the experiment with HCC 2998 it was 34.8 µM (inactive); with HOP-92, 45.8 µM (inactive); with Hs-578T, 42.2 µM (inactive). Also, the GI50 in the experiment with IGROV-1 is 37.8 µM (inactive); in the experiment on Malme-3M, 14.4 µM (inactive); with NCI/ADR-RES, 28.6 µM (inactive); with OVCAR-3 it was 25 µM (inactive); with OVCAR-4 it was 27.2 µM (inactive); with PC-3, 33.1 µM (inactive). Also, the GI50 in the experiment with SK-MEL-5 is 18.5 µM (inactive); in the experiment with SN12C it was 34.8 µM (inactive); in the experiment on SNB-19, 63.8 µM (inactive); with SNB-75, > 100 µM (inactive); with U-251, 37.4 µM (inactive); in the experiment on UO-31, 55.8 µM (inactive).
For `COc1ccc(Oc2ccc3cc4c(cc3c2O)OCO4)c2cc(C)oc12`, the GI50 in the experiment on A498 is 38.3 µM (inactive); in the experiment on ACHN, 35.6 µM (inactive); in the experiment on CAKI-1, 30.1 µM (inactive); with HCC 2998 it was 23.2 µM (inactive); with HOP-92 it was 25.2 µM (inactive); in the experiment on Hs-578T it was 37.7 µM (inactive). Moreover, the GI50 in the experiment on IGROV-1 was 37.8 µM (inactive); in the experiment with Malme-3M it was 24.2 µM (inactive); in the experiment with NCI/ADR-RES, 20.9 µM (inactive); in the experiment on OVCAR-3, 28.8 µM (inactive); in the experiment with OVCAR-4 it was 22.4 µM (inactive); in the experiment on PC-3 it was 24.8 µM (inactive). Further, the GI50 with SK-MEL-5 was 16.4 µM (inactive); in the experiment with SN12C, 29.6 µM (inactive); in the experiment on SNB-19, 36.9 µM (inactive); in the experiment on SNB-75, 33.4 µM (inactive); in the experiment with UACC-257 it was 20.8 µM (inactive); with UO-31, 29.1 µM (inactive).
`CC(=O)OC1CC2C(=O)CC1(C)C2(C)C` (centres undefined): the GI50 with A498, in the experiment on ACHN, with CAKI-1, in the experiment on HCC 2998, in the experiment with HOP-92 and with Hs-578T was > 100 µM (inactive) in each case. Moreover, the GI50 in the experiment on Malme-3M, in the experiment with NCI/ADR-RES, in the experiment with OVCAR-3, with OVCAR-4, with PC-3 and with SK-MEL-5 was > 100 µM (inactive) in each case. Also, the GI50 with SN12C is > 100 µM (inactive); in the experiment on SNB-19 it was > 100 µM (inactive); in the experiment with SNB-75, 67.9 µM (inactive) and > 83.6 µM (inactive); in the experiment on U-251, > 100 µM (inactive); with UACC-257, > 100 µM (inactive); in the experiment with UO-31, > 100 µM (inactive).
Consider `CC(=O)OC1/C(=C/c2ccc([N+](=O)[O-])cc2)C[C@H]2[C@@H]3CC=C4C[C@@H](OC(C)=O)CC[C@]4(C)[C@H]3CC[C@]12C` (some centres undefined), for which the GI50 is > 52.6 µM (inactive) in the experiment with A498; 99.8 µM (inactive) with ACHN; > 48.9 µM (inactive) in the experiment on CAKI-1; > 100 µM (inactive) in the experiment with HCC 2998; 34.4 µM (inactive) with HOP-92; 74.5 µM (inactive) in the experiment on Hs-578T. Moreover, the GI50 was > 100 µM (inactive) with IGROV-1; > 100 µM (inactive) with Malme-3M; > 43 µM (inactive) in the experiment with NCI/ADR-RES; > 100 µM (inactive) with OVCAR-3; > 96.4 µM (inactive) in the experiment on OVCAR-4; > 100 µM (inactive) in the experiment on PC-3. Also, the GI50 in the experiment with SK-MEL-5 is > 100 µM (inactive); in the experiment on SN12C, > 100 µM (inactive); in the experiment with SNB-19, > 72.4 µM (inactive); in the experiment on U-251, 46 µM (inactive); in the experiment with UACC-257, > 100 µM (inactive); with UO-31, > 100 µM (inactive).
